Measurements taken from patent US7915293B2, “Ubiquitin ligase inhibitors” (Rigel Pharmaceuticals, Inc., priority 2003, dated 2011).

Legend:
Parameters in all cases: key: “+” indicates that the compound exibits inhibitory activity; “−” indicates that low or no inhibitory activity was observed
[1] = target: E3 (His-APC11/APC2-"APC") (Homo sapiens, UniProt Q9NYG5+Q9UJX6); assay: Plate-based E3 ligase assay (APC FLAG), auto-ubiquitination; type: biochemical; conditions: 8 concentrations tested
How it was run: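 His-APC11/APC2 auto-ubiquitination was run in casein-blocked nickel plates for 1 h at room temperature, with E1 at 5 ng/well, UbcH5c at 20 ng/well and APC at 100 ng/well. Buffer was 62.5 mM Tris pH 7.6, 3 mM MgCl2, 1 mM DTT, 2.5 mM ATP and Flag-ubiquitin at 100 ng/well. Detection used anti-Flag/HRP chemiluminescence, and IC50 was typically from 6 or 8 concentrations versus a DMSO control.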

A549 cells = assay: Cell proliferation assay, photographic image analysis of proliferation, apoptosis and death (PAD assay), A549; type: cell-based; conditions: 6 concentrations tested
How it was run: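 Cells grown in RPMI with 5% FBS (2,000/well) and dosed 24 h after plating with 6.3-fold dilutions in duplicate (master plate 500× final, top 10 mM stock). After 48 h at 37 °C, cells formamide-fixed and DAPI-stained. Image analysis counted live, apoptotic and dead cells.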

HeLa cells = assay: Cell proliferation assay, photographic image analysis of proliferation, apoptosis and death (PAD assay), HeLa; type: cell-based; conditions: 6 concentrations tested
Experimental: A549 (ATCC# CCL-185), HeLa (ATCC# CCL-2), HCT116 (ATCC# CCL-247), and H1299 (ATCC# CRL-5803) cells were maintained in T175 flasks following the ATCC recommended media and handling procedures. Flasks reaching approximately 70% confluency were trypsinized and resuspended in RPMI media (Cell-Gro catalog number 10-040-CM) modified to contain 5% FBS, 100 ug/mlPen/Strep (Cell-Gro catalog number 30-002-CL), and 0.3 mg/ml L-Glutamine (Cell-Gro catalog number 25-003-CL). A 20,000 cells/ml solution was made for plating. Cells were plated in black Packard 96 well plates by placing 100 μl per well (2,000 cells per well).
Compounds and additional media were added 24 hours after cell plating. A compound master plate was created with concentrations 500 times greater than the final concentration added to the cells. All compound testing was done in duplicate using 6.3 fold dilutions starting with 10 mM. All outside wells (and 4 internal wells) were DMSO controls. Taxol and at least one additional control were run on all plates. Three microliters of the compound master plate were added to deep well blocks containing 750 μl of RPMI media. One hundred microliters were transferred from the compound/media deep well blocks to the plated cells resulting in a 500 fold dilution of the compounds. Cells were grown at 37° C., 5% CO2 for 48 hours.
Cells to be analyzed by photography were fixed and stained. One hundred microliters of media were removed and 100 μl of 9.3% […] was added to each well. Plates were left on the benchtop for 45 minutes. A staining solution containing 1.55 μl of 1 mg/ml DAPI added to 18.75 ml PBS was warmed for 15 minutes at 37° C. The cells were aspirated prior to washing with 100 μl of PBS. Seventy microliters of PBS were aspirated and 170 μl of the DAPI solution were added to each well of fixed cells. Plates were left at room temperature for one hour then aspirated and washed twice with 100 μl of PBS. The stained cells were left at 4° C. for a minimum of 16 hours before photographic analysis with Array Scan II (Cellomics). Analysis of the photographic images to determine numbers of live cells (proliferation), apoptotic cells and dead cells, were according to the methods described in U.S. Provisional Patent Application Ser. No. 60/406,714, which incorporated herein in its entirety.

Chain of E3 (His-APC11/APC2-"APC") (Q9NYG5 whole entry): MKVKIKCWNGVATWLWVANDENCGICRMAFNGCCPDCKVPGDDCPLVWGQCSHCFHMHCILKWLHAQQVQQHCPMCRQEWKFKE
Chain of E3 (His-APC11/APC2-"APC") (Q9UJX6 whole entry): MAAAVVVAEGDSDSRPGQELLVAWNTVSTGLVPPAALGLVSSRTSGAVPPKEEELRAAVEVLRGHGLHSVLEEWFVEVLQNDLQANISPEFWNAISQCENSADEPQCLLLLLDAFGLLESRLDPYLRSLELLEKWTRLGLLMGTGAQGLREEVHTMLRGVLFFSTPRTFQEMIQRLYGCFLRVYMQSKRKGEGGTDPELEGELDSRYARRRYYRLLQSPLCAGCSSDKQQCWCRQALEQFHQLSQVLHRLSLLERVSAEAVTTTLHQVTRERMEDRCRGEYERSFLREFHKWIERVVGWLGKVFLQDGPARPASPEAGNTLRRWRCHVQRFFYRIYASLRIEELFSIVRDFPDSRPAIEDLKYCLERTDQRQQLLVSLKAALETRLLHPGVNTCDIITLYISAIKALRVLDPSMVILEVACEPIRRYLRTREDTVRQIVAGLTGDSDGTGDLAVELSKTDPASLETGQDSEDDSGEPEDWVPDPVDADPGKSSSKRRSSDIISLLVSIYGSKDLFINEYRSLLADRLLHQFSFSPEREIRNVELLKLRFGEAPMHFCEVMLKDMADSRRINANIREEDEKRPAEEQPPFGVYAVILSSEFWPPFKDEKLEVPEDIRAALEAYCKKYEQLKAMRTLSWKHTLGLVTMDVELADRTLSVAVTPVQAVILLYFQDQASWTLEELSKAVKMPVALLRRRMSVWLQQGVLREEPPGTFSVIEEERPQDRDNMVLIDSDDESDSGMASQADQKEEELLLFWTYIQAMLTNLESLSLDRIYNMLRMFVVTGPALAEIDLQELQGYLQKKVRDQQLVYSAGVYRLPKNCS

O=[N+]([O-])c1ccc(Oc2c(Cl)cc(S(=O)(=O)Nc3c(F)cc(F)cc3F)cc2Cl)c(Cl)c1 [Example 241, 3,5-dichloro-4-(2-chloro-4-nitrophenoxy)-N-(2,4,6-trifluorophenyl)benzenesulfonamide]
APC Flag 8 pt [1]: + | PAD Assay, A549 6 pt (A549 cells): + | PAD Assay, HELA 6 pt (HeLa cells): +

CC(C)(C)c1cc2cc(NS(=O)(=O)c3cc(Cl)c(Oc4ccc([N+](=O)[O-])cc4Cl)c(Cl)c3)ccc2[nH]1 [Example 245, N-(2-tert-butyl-1H-indol-5-yl)-3,5-dichloro-4-(2-chloro-4-nitrophenoxy)benzene-sulfonamide]
APC Flag 8 pt [1]: + | PAD Assay, A549 6 pt (A549 cells): + | PAD Assay, HELA 6 pt (HeLa cells): +

O=S(=O)(Nc1cccc2cnccc12)c1cc(Cl)c(Oc2ccc(Cl)cc2Cl)c(Cl)c1 [Example 246, 3,5-dichloro-4-(2,4-dichlorophenoxy)-N-isoquinolin-5-ylbenzenesulfonamide]
APC Flag 8 pt [1]: + | PAD Assay, A549 6 pt (A549 cells): + | PAD Assay, HELA 6 pt (HeLa cells): +

Cc1ccc(NS(=O)(=O)c2cc(Cl)c(Oc3ccc([N+](=O)[O-])cc3Cl)c(Cl)c2)cc1I [Example 250, 3,5-dichloro-4-(2-chloro-4-nitrophenoxy)-N-(3-iodo-4-methylphenyl)benzenesulfonamide]
APC Flag 8 pt [1]: + | PAD Assay, A549 6 pt (A549 cells): + | PAD Assay, HELA 6 pt (HeLa cells): +

Cc1ccc(Cl)cc1NS(=O)(=O)c1cc(Cl)c(Oc2ccc([N+](=O)[O-])cc2Cl)c(Cl)c1 [Example 252, 3,5-dichloro-N-(5-chloro-2-methylphenyl)-4-(2-chloro-4-nitrophenoxy)benzene-sulfonamide]
APC Flag 8 pt [1]: + | PAD Assay, A549 6 pt (A549 cells): + | PAD Assay, HELA 6 pt (HeLa cells): +

O=S(=O)(Nc1ccc(F)c(Cl)c1)c1ccc(Oc2ncc(C(F)(F)F)cc2Cl)cc1 [Example 256, N-(3-chloro-4-fluorophenyl)-4-{[3-chloro-5-(trifluoromethyl)pyridin-2-yl]oxy}benzene-sulfonamide]
APC Flag 8 pt [1]: + | PAD Assay, A549 6 pt (A549 cells): + | PAD Assay, HELA 6 pt (HeLa cells): +

O=[N+]([O-])c1ccc(F)c(NS(=O)(=O)c2ccc(Oc3ncc(C(F)(F)F)cc3Cl)cc2)c1 [Example 258, 4-{[3-chloro-5-(trifluoromethyl)pyridin-2-yl]oxy}-N-(2-fluoro-5-nitrophenyl)benzene-sulfonamide]
APC Flag 8 pt [1]: + | PAD Assay, A549 6 pt (A549 cells): + | PAD Assay, HELA 6 pt (HeLa cells): +

O=[N+]([O-])c1ccc(Oc2ccc(S(=O)(=O)Nc3cc(Cl)ccc3Cl)cc2Cl)c(C(F)(F)F)c1 [Example 261, 3-chloro-N-(2,5-dichlorophenyl)-4-(4-nitro-2-(trifluoromethyl)phenoxy]benzene-sulfonamide]
APC Flag 8 pt [1]: + | PAD Assay, A549 6 pt (A549 cells): + | PAD Assay, HELA 6 pt (HeLa cells): +

O=[N+]([O-])c1ccc(Oc2ccc(S(=O)(=O)Nc3ccc(F)cc3C(F)(F)F)cc2Cl)c(C(F)(F)F)c1 [Example 266, 3-chloro-N-[4-fluoro-2-(trifluoromethyl)phenyl]-4-[4-nitro-2-(trifluoromethyl)phenoxy]benzenesulfonamide]
APC Flag 8 pt [1]: + | PAD Assay, A549 6 pt (A549 cells): + | PAD Assay, HELA 6 pt (HeLa cells): +

O=[N+]([O-])c1ccc(Oc2ccc(S(=O)(=O)Nc3c(F)cccc3F)cc2Cl)c(C(F)(F)F)c1 [Example 268, 3-chloro-N-(2,6-difluorophenyl)-4-[4-nitro-2-(trifluoromethyl)phenoxy]benzene-sulfonamide]
APC Flag 8 pt [1]: + | PAD Assay, A549 6 pt (A549 cells): + | PAD Assay, HELA 6 pt (HeLa cells): +

O=S(=O)(Nc1cc(F)ccc1F)c1ccc(Oc2ncc(C(F)(F)F)cc2Cl)cc1 [Example 269, 4-{[3-chloro-5-(trifluoromethyl)pyridin-2-yl]oxy}-N-(2,5-difluorophenyl)benzene-sulfonamide]
APC Flag 8 pt [1]: + | PAD Assay, A549 6 pt (A549 cells): − | PAD Assay, HELA 6 pt (HeLa cells): −

O=[N+]([O-])c1ccc(Oc2ccc(S(=O)(=O)Nc3cccc(Br)c3)cc2Cl)c(C(F)(F)F)c1 [Example 270, N-(3-bRomophenyl)-3-chloro-4-[4-nitro-2-(trifluoromethyl)phenoxy]benzenesulfonamide]
APC Flag 8 pt [1]: + | PAD Assay, A549 6 pt (A549 cells): + | PAD Assay, HELA 6 pt (HeLa cells): +

Cc1c(Cl)cccc1S(=O)(=O)Nc1ccc(Oc2ccc([N+](=O)[O-])cc2)cc1 [Example 274, 3-chloro-2-methyl-N-[4-(4-nitrophenoxy)phenyl]benzenesulfonamide]
APC Flag 8 pt [1]: + | PAD Assay, A549 6 pt (A549 cells): + | PAD Assay, HELA 6 pt (HeLa cells): −

O=[N+]([O-])c1ccc(Oc2ccc(NS(=O)(=O)c3cccc(Cl)c3)cc2)cc1 [Example 275, 3-chloro-N-[4-(4-nitrophenoxy)phenyl] benzenesulfonamide]
APC Flag 8 pt [1]: + | PAD Assay, A549 6 pt (A549 cells): + | PAD Assay, HELA 6 pt (HeLa cells): −

O=S(=O)(Nc1ccc(Oc2ccc(Cl)cc2)cc1)c1cc(Cl)ccc1Cl [Example 276, 2,5-dichloro-N-[4-(4-chlorophenoxy)phenyl]benzenesulfonamide]
APC Flag 8 pt [1]: + | PAD Assay, A549 6 pt (A549 cells): + | PAD Assay, HELA 6 pt (HeLa cells): −

O=S(=O)(Nc1ccc(Oc2cc(C(F)(F)F)ccc2Cl)cc1F)c1cc(Cl)ccc1Cl [Example 277, 2,5-dichloro-N-{4-[2-chloro-5-(trifluoro-methyl)phenoxy]-2-fluorophenyl}benzene-sulfonamide]
APC Flag 8 pt [1]: + | PAD Assay, A549 6 pt (A549 cells): + | PAD Assay, HELA 6 pt (HeLa cells): +

O=S(=O)(Nc1ccc(Oc2ccc(F)cc2)c(Br)c1)c1cc(Cl)ccc1Cl [Example 278, N-[3-bRomo-4-(4-fluorophenoxy)phenyl]-2,5-dichlorobenzenesulfonamide]
APC Flag 8 pt [1]: + | PAD Assay, A549 6 pt (A549 cells): + | PAD Assay, HELA 6 pt (HeLa cells): +

O=S(=O)(Nc1ccc(Oc2c(Cl)cc(Cl)cc2Cl)cc1)c1cc(Cl)ccc1Cl [Example 279, 2,5-dichloro-N-[4-(2,4,6-trichlorophenoxy)phenyl]benzenesulfonamide]
APC Flag 8 pt [1]: + | PAD Assay, A549 6 pt (A549 cells): + | PAD Assay, HELA 6 pt (HeLa cells): +

Cc1c(Cl)cccc1S(=O)(=O)Nc1ccc(Oc2ccc(F)cc2)c(Br)c1 [Example 281, N-[3-bRomo-4-(4-fluorophenoxy)phenyl]-3-chloro-2-methylbenzenesulfonamide]
APC Flag 8 pt [1]: + | PAD Assay, A549 6 pt (A549 cells): + | PAD Assay, HELA 6 pt (HeLa cells): +

O=S(=O)(Nc1ccc(Oc2ccc(F)cc2)c(Br)c1)c1ccc(F)cc1 [Example 283, N-[3-bRomo-4-(4-fluorophenoxy)phenyl]-4-fluorobenzenesulfonamide]
APC Flag 8 pt [1]: + | PAD Assay, A549 6 pt (A549 cells): + | PAD Assay, HELA 6 pt (HeLa cells): −
